Experimental data: patent US20240139210A1, “TREATMENT OF NF-KB-MEDIATED DISEASE” (ReveraGen BioPharma, Inc., priority 2020, published 2024)

Tests used:
Type in all cases: in vivo, human
[1] = VBP15-002 multiple ascending dose trial, PK and safety
Experimental: Vamorolone clinical studies have been conducted in adult male volunteers and boys with DMD, a disorder in which skeletal muscle is in a chronic inflammatory state. Two consecutive open-label dose-ranging studies in 48 DMD patients aged 4 to <7 years (corticosteroid-naïve) were conducted (Phase IIa, VBP15-002; Phase IIa, VBP15-003). Doses were tested over a 24-fold dose range (0.25, 0.75, 2.0, and 6.0 mg/kg/day), with 12 participants per group. The first multiple ascending dose (MAD) cohort trial-tested pharmacokinetics (PK) and safety for 2 weeks of drug dosing followed by a 2-week washout (VBP15-002). […] All DMD participants completed the MAD study and then continued on the same dose for a 24-week dose-finding (efficacy and safety) extension study (VBP15-003).
VBP15-002 (Phase IIa; two weeks on the drug, two weeks off drug) enrolled 48 corticosteroid-naïve participants with DMD, and all 48 participants completed the study and enrolled into VBP15-003 (Phase IIa extension; 24-week treatment). Forty-six of 48 participants completed the VBP15-003 study (2 participants withdrew from VBP15-003 for reasons unrelated to the study drug). In addition, all participants (46/46) opted to enroll in the 24-month long-term extension study, VBP15-LTE.

participants with DMD [2] = experiment: CINRG DNHS corticosteroid-treated external comparator; details: vamorolone versus corticosteroid-treated DNHS, 18 months
Source text: The consecutive vamorolone trials (VBP15-002, VBP15-003, VBP15-LTE) were open-label with no placebo comparator. Corticosteroid-naïve and corticosteroid-treated DMD participant comparators were group-matched participants from the CINRG DNHS (NCT00468832). The CINRG DNHS was an observational, prospective case-control study of 551 participants (440 with DMD, 111 healthy peers). For group matching between vamorolone-treated participants and CINRG DNHS participants, prespecified criteria were defined for matching within the interim statistical analysis plan (iSAP). Age-matched CINRG DNHS participants included those continuously corticosteroid-naïve over an 18-month period (n=19) or continuously corticosteroid-treated over an 18-month period (n=68). For the 68 corticosteroid-treated participants, as this was an observational cohort, corticosteroid doses and regimens varied based on clinician discretion. Although all 68 participants were treated for 18 months continuously, the age at initiation of corticosteroids varied. Thus, the total duration of corticosteroid treatment was longer than 18 months for most participants. […]
The incidences of physician-reported AEs typically for corticosteroid treatment were determined for participants that had been treated with vamorolone 6.0 mg/kg/day (for any duration), taken from the March 2019 Data Safety Update Report (DSUR) (pharmacovigilance report). […]

boys with DMD = experiment: CINRG 12-month prednisone clinical trial, external comparator; details: vamorolone 18-month treatment versus prednisone trial 12-month treatment
Experimental: As with the CINRG DNHS comparators, group-matching criteria were prespecified in the iSAP, and 2 independent statisticians carried out the participant matching. […] There was no corresponding 12-month assessment in vamorolone-treated participants. (Assessments of vamorolone-treated trial participants were 0, 3, 6, and 18 months).
Participants in the corticosteroid-treated CINRG DNHS group were treated for at least 18 months, but the total duration, dose, and regimens varied.

participants with DMD [3] = experiment: Physician-reported adverse events in vamorolone trials (DSUR, DSMB report)
Experimental: Study visits took place quarterly, including assessment of clinical laboratory results, vital signs, and AEs. All AEs were coded using the Medical Dictionary for Regulatory Activities (MedDRA version 19.0) system for reporting (preferred term and system organ class). Clinical efficacy assessments were performed at baseline of the VBP15-002 study, at six months (end of VBP15-003 study), and the 12-month midpoint visit of the VBP15-LTE study.
A Data and Safety Monitoring Board report on the VBP15-LTE study covering all participants enrolled in the VBP15-LTE study (inclusive beyond the 12-month midpoint assessment) included three serious AEs (2 myoglobinuria events [in the same participant] and one pneumonia), all deemed unrelated to study drug. For all reported TEAEs, 402 were deemed unrelated to vamorolone, 37 were deemed remotely related, 29 were deemed possibly related, 11 were deemed probably related, and three were deemed definitely related. Of the 14 AEs probably and definitely related to vamorolone, 10 were weight gain, 2 were increased appetite, 1 was Cushingoid features, and 1 was irritability.
The incidences of physician-reported AEs typically for corticosteroid treatment were determined for participants that had been treated with vamorolone 6.0 mg/kg/day (for any duration), taken from the March 2019 Data Safety Update Report (DSUR) (pharmacovigilance report). Incidence rates of Cushingoid features, weight gain, hirsutism, and behavior change were studied (Table 8).

[4] = tested on: ambulant boys aged 4 to <7 years with DMD; experiment: VBP15-004 bone turnover biomarkers; details: for CTX, difference vs. prednisone / Osteocalcin, difference vs. prednisone / P1NP, difference vs. prednisone: Week 24
[5] = tested on: ambulant boys aged 4 to <7 years with DMD; experiment: VBP15-004 growth (height Z scores)
Source text: The second period of 24 weeks, where all participants receive vamorolone treatment on either of the two dose levels, will continue to capture additional longer-term safety and tolerability data.

[6] = 6.0 mg/kg/day vamorolone for any duration, n = 38
[7] = VBP15-LTE, DSMB report, all participants

C[C@@H]1C[C@H]2[C@@H]3CCC4=CC(=O)C=C[C@]4(C)C3=CC[C@]2(C)[C@@]1(O)C(=O)CO [Vamorolone, 17α,21-dihydroxy-16α-methylpregna-1,4,9(11)-triene-3,20-dione]
dose-limiting toxicities ([1]; 0.25-6.0 mg/kg/day, 2 weeks dosing): no dose-limiting toxicities
drug accumulation ([1]; day 1 vs day 14): no drug accumulation
half-life ([1]; male, human, in vivo, oral, DMD patients aged 4 to <7 years, 0.25-6.0 mg/kg/day, 2 weeks dosing): ~2 h
Mean height percentile for age, LS mean difference (SE), ANCOVA (participants with DMD [2]): 15.86 percentile
Mean height percentile for age, LS mean difference (SE), ANCOVA (boys with DMD): 10.37 percentile
Incidence of physician-reported Cushingoid (participants with DMD [3]; [6]): 2.6%
Incidence of physician-reported behavior change (participants with DMD [3]; [6]): 0%^2
Incidence of physician-reported hypertrichosis/hirsutism (participants with DMD [3]; [6]): 0%
Incidence of physician-reported weight gain (participants with DMD [3]; [6]): 13.2%
Cushingoid features among the 14 AEs probably and definitely related, number (participants with DMD [3]; VBP15-LTE, DSMB report): 1
increased appetite among the 14 AEs probably and definitely related, number (participants with DMD [3]; VBP15-LTE, DSMB report): 2
irritability among the 14 AEs probably and definitely related, number (participants with DMD [3]; VBP15-LTE, DSMB report): 1
weight gain among the 14 AEs probably and definitely related, number (participants with DMD [3]; VBP15-LTE, DSMB report): 10
TEAEs deemed definitely related, number (participants with DMD [3]; [7]): three
TEAEs deemed possibly related, number (participants with DMD [3]; [7]): 29
TEAEs deemed probably related, number (participants with DMD [3]; [7]): 11
TEAEs deemed remotely related, number (participants with DMD [3]; [7]): 37
TEAEs deemed unrelated to vamorolone, number (participants with DMD [3]; [7]): 402
serious AEs, number (participants with DMD [3]; VBP15-LTE, DSMB report, all deemed unrelated to study drug): three
Osteocalcin, mean (SEM) change at Week 24 ([4]; Vamorolone 2.0 mg (N = 17)): 8.3 (3.1) ng/ml
Procollagen 1 N-Terminal Propeptide (P1NP), mean (SEM) change at Week 24 ([4]; Vamorolone 2.0 mg (N = 17)): 48 (27) ng/mL
Type I Collagen C-Telopeptides (CTX), mean (SEM) change at Week 24 ([4]; Vamorolone 2.0 mg (N = 17)): 177 (52) pg/mL
CTX, difference vs. prednisone ([4]; Vamorolone 2.0 mg): 477 (p < 0.001) pg/mL
Osteocalcin, difference vs. prednisone ([4]; Vamorolone 2.0 mg): 23.5 ng/mL
P1NP, difference vs. prednisone ([4]; Vamorolone 2.0 mg): 182 ng/mL
Osteocalcin, mean (SEM) change at Week 24 ([4]; Vamorolone 6.0 mg (N = 23)): 1.7 (2.8) ng/ml
Procollagen 1 N-Terminal Propeptide (P1NP), mean (SEM) change at Week 24 ([4]; Vamorolone 6.0 mg (N = 23)): −11 (22) ng/mL
Type I Collagen C-Telopeptides (CTX), mean (SEM) change at Week 24 ([4]; Vamorolone 6.0 mg (N = 23)): 90 (44) pg/mL
CTX, difference vs. prednisone ([4]; Vamorolone 6.0 mg): 390 (p < 0.001) pg/mL
Osteocalcin, difference vs. prednisone ([4]; Vamorolone 6.0 mg): 16.9 ng/mL
P1NP, difference vs. prednisone ([4]; Vamorolone 6.0 mg): 124 (p < 0.001) ng/mL
change in height Z scores from baseline to Week 24 ([5]; vamorolone 2.0 mg/kg/day): overall stable height change Z scores
change in height Z scores from baseline to Week 24 ([5]; vamorolone 6.0 mg/kg/day): increased growth rate
